Data reported in patent publication US5359138A (Zaidan Hojin Biseibutsu Kagaku Kenkyu KaI, priority 1989, dated 1994).
“Also recorded” adds a separate entry of the source. Starred links: 1 amine or outer side, 2 acyl side, 3 side chain; linkers in the order of their positions; H or OH if unused. Non-standard residues stand in square brackets, D forms with d. Residues, ends and D or L forms follow the SMILES beside them. ξ: configuration not given here. *: point of attachment. ξ(3-Amino-2-oxopentanoyl) = CCC(N[*:1])C(=O)C(=O)[*:2]; Abu(ψCOCO) = CC[C@H](N[*:1])C(=O)C(=O)[*:2]; Butanoyl(4-Ph) = O=C(CCCc1ccccc1)*; Cbz = O=C(OCc1ccccc1)*; OBn = c1ccc(CO*)cc1

Columns and labels:
prolylendopeptidase = target: T1, prolylendopeptidase (Sus scrofa, UniProt P23687); test: Determination of anti-prolylendopeptidase activity; type: biochemical, pig; settings: for PPCE = Propylendopeptidase inhibition activity, IC50: pig kidney enzyme, substrate Z-Gly-Pro-beta-naphthylamide, 37° C., 30 minutes, pH 7.8
T1 construct: a pig kidney sample was subjected to a fractionation operation with ammonium sulfate; from tissue; host or cells: pig kidney
T1 sequence (P23687 whole entry): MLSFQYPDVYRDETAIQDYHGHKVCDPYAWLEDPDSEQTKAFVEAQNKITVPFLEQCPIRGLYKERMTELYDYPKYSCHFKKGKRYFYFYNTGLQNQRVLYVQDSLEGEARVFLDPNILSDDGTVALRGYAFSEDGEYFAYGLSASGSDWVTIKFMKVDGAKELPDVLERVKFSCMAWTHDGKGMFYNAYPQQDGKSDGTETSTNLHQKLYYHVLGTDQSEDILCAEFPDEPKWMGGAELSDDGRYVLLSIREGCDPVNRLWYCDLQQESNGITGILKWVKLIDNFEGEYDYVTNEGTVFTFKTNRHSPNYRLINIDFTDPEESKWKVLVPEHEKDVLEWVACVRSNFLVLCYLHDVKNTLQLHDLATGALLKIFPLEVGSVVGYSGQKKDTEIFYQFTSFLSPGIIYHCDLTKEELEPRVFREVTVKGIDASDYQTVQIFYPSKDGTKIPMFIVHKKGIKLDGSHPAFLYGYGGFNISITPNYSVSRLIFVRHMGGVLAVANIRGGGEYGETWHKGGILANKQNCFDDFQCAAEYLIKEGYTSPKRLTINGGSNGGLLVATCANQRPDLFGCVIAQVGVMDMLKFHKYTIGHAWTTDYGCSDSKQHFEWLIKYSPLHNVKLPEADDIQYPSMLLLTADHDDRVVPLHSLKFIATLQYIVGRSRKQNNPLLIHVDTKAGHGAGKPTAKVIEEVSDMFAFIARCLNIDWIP
Description: The determination of anti-prolylendopeptidase activity was conducted by a modified method based on the method by Yoshimoto et al (Biochim. Biophys. Acta, vol. 569, pages 184-192 (1979)).
A test tube was charged with a solution mixture consisting of (a) 0.2 ml of a solution of 0.5 mM N-benzyloxycarbonyl-L-glycyl-L-prolyl-beta-naphthylamide in 40% dioxane; (b) 0.5 ml of a 0.05M Tris-HCl buffer solution (pH 7.8); and (c) 0.25 ml of an aqueous solution containing the test material. The solution mixture was heated to 37° C. for 3 minutes, and admixed with 0.05 ml of a prolylendopeptidase solution to effect a reaction at 37° C. for 30 minutes. The prolylendopeptidase employed was that which had been obtained according to a modified method based on the enzyme purification method by Koida, Walter et al. (J. Biol. Chem. Vol. 251, pages 7593-7599 (1976), wherein a pig kidney sample was subjected to a fractionation operation with ammonium sulfate, and wherein a purification was effected by a column chromatography employing a DEAE-Sephadex A-50 column.
After the completion of the reaction, the reaction mixture was admixed with 1 ml of a 1M sodium acetate buffer solution containing 10% of Tween-20 and 0.1% of Fast Garnet GBC salt. The reaction mixture was allowed to stand at room temperature for 15 minutes, and then measured for the light absorption at 525 nm (a). At the same time, a control sample, which was free of the test compounds and contained only the buffer solution, was measured for the light absorption (b).
The prolylendopeptidase inhibition activity was determined by employing the formula: […]

cathepsin B = cathepsin B (Homo sapiens, UniProt P07858); test: Cathepsin B inhibition activity (method by Knight); type: biochemical
Description: The elastase inhibition activity was determined according to a method by Mumford, R. A. et al (J. Biol. Chem., 225, 2227 (1980)). The cathepsin B inhibition activity was determined according to a method by Knight, C. G. (Biochem. J., 189, 447-453 (1980)).

Solubility of poststatin = type: physicochemical; settings: solvents as named; listed as poststatin
mice = test: Toxicity, LD50 (i.v.) in mice; type: in vivo
Description: The compounds according to the invention have a low toxicity. In the case of mice, LD50 (i.v.) of poststatin is at least 200 mg/kg. Therefore, it can be expected that the compounds according to the invention will be useful, for instance, as a drug for treating amnesia and autoimmune diseases including systemic erythematosus and the like.

| SMILES | PPCE = Propylendopeptidase inhibition activity, IC50 (prolylendopeptidase) [µg/mL] | CatB = Cathepsin B inhibition activity, IC50 (cathepsin B) [µg/mL] | IC50 (prolylendopeptidase) [nM] | IC50 (cathepsin B; read-out: CatB = Cathepsin B inhibition activity, IC50) [µM] | Solubility (Solubility of poststatin) | LD50 (i.v.) (mice) |
| --- | --- | --- | --- | --- | --- | --- |
| CCC(NC(=O)[C@H](Cc1ccccc1)NC(=O)OCc1ccccc1)C(=O)C(=O)N[C@H](CC(C)C)C(=O)N[C@H](C(=O)O)C(C)C (mixture of isomers) [Compound 4, Z-L-phenylalanyl-(RS)-3-amino-2-oxopentanoyl-D-leucyl-L-valine] | 0.007 | 0.64 |  |  |  |  |
| CCC(NC(=O)[C@@H]1CCCN1C(=O)[C@@H](NC(=O)CCCc1ccccc1)C(C)C)C(=O)C(=O)N[C@H](CC(C)C)C(=O)N[C@H](C(=O)O)C(C)C (stereo partly drawn) [Compound 7, phenylbutanoyl-L-valyl-L-propyl-3-amino-2-oxopentanoyl-D-leucyl-L-valine] ({Butanoyl(4-Ph)}-VP[ξ(3-Amino-2-oxopentanoyl)][dL]V-OH) | 0.17 | 72 |  |  |  |  |
| CCC(NC(=O)[C@@H](NC(=O)OC(C)(C)C)C(C)C)C(=O)C(=O)N[C@H](CC(C)C)C(=O)OC(C)(C)C (mixture of isomers) [Compound 5, BOC-L-valyl-(RS)-3-amino-2-oxopentanoyl-D-leucyl t-butyl ester] | 0.04 | 2.2 |  |  |  |  |
| CCC(NC(=O)[C@H](Cc1ccccc1)NC(=O)OCc1ccccc1)C(=O)C(=O)N[C@H](CC(C)C)C(=O)N[C@H](C(=O)OC(C)(C)C)C(C)C (mixture of isomers) [Compound 3, Z-L-phenylalanyl-(RS)-3-amino-2-oxopentanoyl-D-leucyl-L-valine t-butyl ester] | 0.11 | > 100 |  |  |  |  |
| CC[C@H](NC(=O)[C@@H](NC(=O)[C@@H](NC(=O)OCc1ccccc1)C(C)C)C(C)C)C(=O)C(=O)N[C@H](CC(C)C)C(=O)N[C@H](C(=O)OCc1ccccc1)C(C)C [Compound 2, Z-L-valyl-L-valyl-(3S)-3-amino-2-oxo-pentanoyl-D-leucyl-L-valine benzyl ester] (Cbz-VV[Abu(ψCOCO)][dL]V-OBn) | 1 | 100 |  |  |  |  |
| CCC(NC(=O)[C@@H]1CCCN1C(=O)[C@@H](N)C(C)C)C(=O)C(=O)N[C@H](CC(C)C)C(=O)N[C@H](C(=O)O)C(C)C (stereo partly shown) [Compound 6] |  |  | 556 | > 185 |  |  |
| CC[C@H](NC(=O)[C@@H](NC(=O)[C@@H](N)C(C)C)C(C)C)C(=O)C(=O)N[C@H](CC(C)C)C(=O)N[C@H](C(=O)O)C(C)C [Compound 1, L-valyl-L-valyl-(3S)-3-amino-2-oxo-pentanoyl-D-leucyl-L-valyl] (H-VV[Abu(ψCOCO)][dL]V-OH) | 0.03 | 2.1 |  |  | soluble in water, methanol, and dimethyl sulfoxide; also recorded: insoluble in acetone, ethyl acetate, chloroform and hexane | at least 200 mg/kg |
